Laboratory results reported in ChEMBL document CHEMBL1123275, “Synthesis and renal vasodilator activity of some dopamine agonist 1-aryl-2,3,4,5-tetrahydro-1H-3-benzazepine-7,8-diols: halogen and methyl analogues of fenoldopam” (J Med Chem, 1986).
Activity calls are given as the source filed them. The calls are words filed in the database; no cut-off is given here.

Columns and labels:
Rattus norvegicus [1] = test: Compound was tested for its CNS activity in vivo by determining drug-induced rotation in rats with 6-hydroxydopamine induced lesions of the SNx rats after ip administration measured as dose-turns; 10-no significant activity; format: functional, organism-based; details: Central nervous system
Rattus norvegicus [2] = organism: Rattus norvegicus; test: In vitro dose stimulating D-1 adenylate cyclase in rat caudate nuclei; format: functional, organism-based
Rattus norvegicus [3] = test: Compound was tested for its CNS activity in vivo in SNx rats with 6-hydroxydopamine induced lesions after ip administration measured as dose-turns; 10-No significant activity; format: functional, organism-based; details: Central nervous system
Canis familiaris [4] = test: cardiovascular activity was determined in anesthetized dogs.(Mean arterial blood pressure); format: functional; details: Canis lupus familiaris
Canis familiaris [5] = organism: Canis familiaris; test: Effective dose against Iliac vascular resistance (IVR); format: functional; details: Canis lupus familiaris
Canis familiaris [6] = organism: Canis familiaris; test: Maximum percent decrease in renal vascular resistance.; format: functional, Canis lupus familiaris
Canis familiaris [7] = test: Renal vasodilator activity was determined in anesthetized dogs; format: functional; details: Canis lupus familiaris
Canis familiaris [8] = test: cardiovascular activity was determined in anesthetized dogs.(Heart rate ); format: functional; details: Canis lupus familiaris
Rattus norvegicus [9] = test: Compound was tested for its CNS activity in vivo in SNx rats with 6-hydroxydopamine induced lesions after ip administration; format: functional, Central nervous system
Rattus norvegicus [10] = organism: Rattus norvegicus; test: In vitro dose stimulating D-1 adenylate cyclase in rat caudate nuclei; No significant activity at 10 uM; format: functional
Rattus norvegicus [11] = organism: Rattus norvegicus; test: In vitro inhibition of dopamine stimulated production of [14C]cAMP from [14C]-ATP in homogenates of rat caudate; No significant activity at 10 uM; format: functional
Rattus norvegicus [12] = organism: Rattus norvegicus; test: In vitro inhibition of dopamine stimulated production of [14C]cAMP from [14C]-ATP in homogenates of rat caudate at the concentration of 10 uM; format: functional
Rattus norvegicus [13] = organism: Rattus norvegicus; test: In vitro dose stimulating D-1 adenylate cyclase in rat caudate nuclei as % dopamine response at 10 uM; format: functional
Rattus norvegicus [14] = test: Compound was tested for its CNS activity in vivo in SNx rats with 6-hydroxydopamine induced lesions after ic administration; format: functional, Central nervous system
Rattus norvegicus [15] = organism: Rattus norvegicus; test: In vitro inhibition of dopamine stimulated production of [14C]cAMP from [14C]-ATP in homogenates of rat caudate at the concentration of 1 uM; format: functional
Canis familiaris [16] = test: Cardiovascular activity was determined in anesthetized dogs.(Mean arterial blood pressure); format: functional; details: Canis lupus familiaris, Artery
Canis familiaris [17] = test: Cardiovascular activity was determined in anesthetized dogs.(Heart rate ); format: functional; details: Canis lupus familiaris
Rattus norvegicus [18] = organism: Rattus norvegicus; test: In vitro dose stimulating D-1 adenylate cyclase in rat caudate nuclei at 10 uM; format: functional
Rattus norvegicus [19] = organism: Rattus norvegicus; test: In vitro inhibition of dopamine stimulated production of [14C]-cAMP from [14C]-ATP in homogenates of rat caudate; format: functional

| Compound | EC50 (Rattus norvegicus [2]) [nM] | ED20 (Canis familiaris [4]) [mg/kg] | ED30 (Canis familiaris [5]) [mg/kg] | Decrease (Canis familiaris [6]) [%] | ED15 (Canis familiaris [7]) [mg/kg] | ED20 (Canis familiaris [8]) [mg/kg] | RD500 (Rattus norvegicus [9]) [mg/kg] | also measured |
| --- | --- | --- | --- | --- | --- | --- | --- | --- |
| Oc1ccc(C2CNCCc3c2cc(O)c(O)c3C(F)(F)F)cc1 (centres undefined) |  |  |  |  |  |  |  | RD500 (Rattus norvegicus [1]): inactive |
| Oc1ccc(C2CNCCc3cc(O)c(O)cc32)cc1 (centres undefined) | 200 |  |  |  |  |  |  | RD500 (Rattus norvegicus [3]): inactive |
| Br.Oc1cc2c(c(Br)c1O)CCNCC2c1ccccc1 (centres undefined) | 100 | 6.08 | 6.08 | 42 | 0.009 | 6.08 | 0.34 |  |
| Br.Oc1ccc(C2CNCCc3c(F)c(O)c(O)c(F)c32)cc1 (centres undefined) |  |  |  |  |  |  |  | EC50 (Rattus norvegicus [10]): Not Active; inhibition (Rattus norvegicus [11]): inactive |
| Br.Oc1ccc(C2CNCCc3c2cc(O)c(O)c3I)cc1 (centres undefined) |  | 6.06 | 6.06 | 41 | 0.0042 | 6.06 |  | inhibition (Rattus norvegicus [12]): 55%; Stimulation (Rattus norvegicus [13]): 36% |
| Oc1cc2c(cc1O)C(c1ccccc1)CNCC2 (centres undefined) [SKF-38393] |  | 1.72 | 0.735 | 18 | 0.035 | 1.05 | 0.7 | RD500 (Rattus norvegicus [14]): 0.18 ug rat-1 |
| Br.Oc1cc2c(c(F)c1O)CCNCC2c1ccccc1 (centres undefined) | 40 |  | 54 | 36 | 0.009 |  |  | inhibition (Rattus norvegicus [12]): 17%; inhibition (Rattus norvegicus [15]): 31%; ED20 (Canis familiaris [16]): 54 mg/kg; ED20 (Canis familiaris [17]): 54 mg/kg |
| Br.Oc1ccc(C2CNCCc3c2cc(O)c(O)c3F)cc1 (centres undefined) | 200 | 6.06 | 6.06 | 28 | 0.00083 | 0.00581 |  |  |
| Br.Oc1ccc(C2CNCCc3c2cc(O)c(O)c3Br)cc1 (centres undefined) | 150 | 30.4 | 0.07 | 56 | 0.005 | 30.4 |  | RD500 (Rattus norvegicus [1]): inactive |
| Br.CN1CCc2c(cc(O)c(O)c2Br)C(c2ccccc2)C1 (centres undefined) |  |  |  |  |  |  | 0.015 | Stimulation (Rattus norvegicus [18]): 30%; IC50 (Rattus norvegicus [19]): 320 nM |
| Br.Oc1cc2c(c(Cl)c1O)CCNCC2c1ccccc1 (centres undefined) |  | 6.07 | 2.92 | 39 | 0.0035 | 0.378 | 0.3 | RD500 (Rattus norvegicus [14]): 0.22 ug rat-1 |
| CN1CCc2c(cc(O)c(O)c2Cl)C(c2ccccc2)C1.Cl (centres undefined) |  |  |  |  |  |  | 0.03 | Stimulation (Rattus norvegicus [18]): 30%; IC50 (Rattus norvegicus [19]): 600 nM |
| Br.CN1CCc2c(cc(O)c(O)c2F)C(c2ccc(O)cc2)C1 (centres undefined) |  |  |  |  |  |  |  | inhibition (Rattus norvegicus [12]): 55%; Stimulation (Rattus norvegicus [18]): 36% |
| Cl.Oc1c(O)c(Cl)c2c(c1Cl)CCNCC2c1ccccc1 (centres undefined) | 1250 | 6.08 | 6.08 | 59 | 0.01 | 6.08 |  | inhibition (Rattus norvegicus [11]): inactive |
